Patent US9326986B2, “Quinazolinone, quinolone and related analogs as sirtuin modulators” (GLAXOSMITHKLINE LLC, priority 2008, dated 2016)

Molecular target: T1, SIRT1 (Homo sapiens, UniProt Q96EB6)
T1 sequence (Q96EB6 1-747): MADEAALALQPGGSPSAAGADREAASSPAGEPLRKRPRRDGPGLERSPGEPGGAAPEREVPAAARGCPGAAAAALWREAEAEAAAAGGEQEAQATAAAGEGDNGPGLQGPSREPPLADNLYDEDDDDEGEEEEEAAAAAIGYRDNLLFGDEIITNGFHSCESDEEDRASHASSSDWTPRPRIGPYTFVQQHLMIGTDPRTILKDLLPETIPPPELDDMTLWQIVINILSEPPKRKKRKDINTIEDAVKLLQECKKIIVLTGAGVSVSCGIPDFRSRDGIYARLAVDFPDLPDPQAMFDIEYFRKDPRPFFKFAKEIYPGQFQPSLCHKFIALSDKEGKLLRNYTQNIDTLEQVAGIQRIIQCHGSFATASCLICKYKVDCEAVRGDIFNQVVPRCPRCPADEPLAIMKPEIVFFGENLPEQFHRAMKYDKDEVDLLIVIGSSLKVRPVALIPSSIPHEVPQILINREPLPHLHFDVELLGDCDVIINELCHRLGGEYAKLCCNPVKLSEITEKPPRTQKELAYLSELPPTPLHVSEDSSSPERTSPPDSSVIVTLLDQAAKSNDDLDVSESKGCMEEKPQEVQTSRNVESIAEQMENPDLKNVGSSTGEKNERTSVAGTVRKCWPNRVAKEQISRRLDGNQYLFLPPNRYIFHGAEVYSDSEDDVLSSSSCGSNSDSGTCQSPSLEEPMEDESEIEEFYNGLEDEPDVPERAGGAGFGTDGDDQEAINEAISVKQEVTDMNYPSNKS
Test: Mass spectrometry based assay to identify modulators of SIRT1 activity (deacetylation of p53-based acetylated peptide)
Format: biochemical
Settings: 10 nM SIRT1, 0.5 μM peptide substrate, 120 μM βNAD+, 25 minutes at 25° C.; for EC1.5 μM: SIRT1 activation
Text: A mass spectrometry based assay was used to identify modulators of SIRT1 activity. The mass spectrometry based assay utilizes a peptide having 20 amino acid residues as follows: Ac-EE-K(biotin)-GQSTSSHSK(Ac)NleSTEG-K(5TMR)-EE-NH2 (SEQ ID NO: 1) wherein K(Ac) is an acetylated lysine residue and Nle is a norleucine. The peptide is labeled with the fluorophore 5TMR (excitation 540 nm/emission 580 nm) at the C-terminus. The sequence of the peptide substrate is based on p53 with several modifications. In addition, the methionine residue naturally present in the sequence was replaced with the norleucine because the methionine may be susceptible to oxidation during synthesis and purification.
The mass spectrometry assay is conducted as follows: 0.5 μM peptide substrate and 120 μM βNAD^+ is incubated with 10 nM SIRT1 for 25 minutes at 25° C. in a reaction buffer (50 mM Tris-acetate pH 8, 137 mM NaCl, 2.7 mM KCl, 1 mM MgCl2, 5 mM DTT, 0.05% BSA). Test compounds may be added to the reaction as described above. […] After the 25 minute incubation with SIRT1, 10 μL of 10% formic acid is added to stop the reaction. Reactions are sealed and frozen for later mass spec analysis. Determination of the mass of the substrate peptide allows for precise determination of the degree of acetylation (i.e. starting material) as compared to deacetylated peptide (product).
A control for inhibition of sirtuin activity is conducted by adding 1 μL of 500 mM nicotinamide as a negative control at the start of the reaction (e.g., permits determination of maximum sirtuin inhibition). A control for activation of sirtuin activity is conducted using 10 nM of sirtuin protein, with 1 μL of DMSO in place of compound, to determine the amount of deacetylation of the substrate at a given timepoint within the linear range of the assay. This timepoint is the same as that used for test compounds and, within the linear range, the endpoint represents a change in velocity.
For the above assay, SIRT1 protein was expressed and purified as follows. […] The protein was expressed by induction with 1 mM IPTG as an N-terminal His-tag fusion protein at 18° C. overnight and harvested at 30,000×g. Cells were lysed with lysozyme in lysis buffer (50 mM Tris-HCl, 2 mM Tris[2-carboxyethyl]phosphine (TCEP), 10 μM ZnCl2, 200 mM NaCl) and further treated with sonication for 10 min for complete lysis. The protein was purified over a Ni-NTA column (Amersham) and fractions containing pure protein were pooled, concentrated and run over a sizing column (Sephadex S200 26/60 global). The peak containing soluble protein was collected and run on an Ion-exchange column (MonoQ). Gradient elution (200 mM-500 mM NaCl) yielded pure protein. This protein was concentrated and dialyzed against dialysis buffer (20 mM Tris-HCl, 2 mM TCEP) overnight. The protein was aliquoted and frozen at −80° C. until further use.
Sirtuin modulating compounds that activated SIRT1 were identified using the assay described above and are shown below in Tables 1 and 2. The EC1.5 values for the activating compounds are represented by A (EC1.5<1.0 μM), B (EC1.5 1-25 μM), C (EC1.5>25 μM). The percent maximum fold activation is represented by A (Fold activation>200%) or B (Fold Activation<200%).

Cn1c(-c2cscn2)nc2c(NC(=O)c3cnccn3)cccc2c1=O [Compound 283]
% Fold Act. (percent maximum fold activation): B (Fold Activation<200%)
EC1.5 μM: C (EC1.5>25 μM)

Cn1nccc1C(=O)Nc1cccc2c(=O)n(C)c(-c3cccc(C(F)(F)F)c3)nc12 [Compound 248]
% Fold Act. (percent maximum fold activation): A (Fold activation>200%)
EC1.5 μM: A (EC1.5<1.0 μM)

Cn1c(-c2cccc(C(F)(F)F)c2)nc2c(NC(=O)c3cocn3)cccc2c1=O [Compound 250]
% Fold Act. (percent maximum fold activation): B (Fold Activation<200%)
EC1.5 μM: C (EC1.5>25 μM)

Cn1c(-c2cccc(C(F)(F)F)c2)nc2c(C(=O)Nc3cccc(CN4CC[C@H](F)C4)n3)cccc2c1=O [Compound 352]
% Fold Act. (percent maximum fold activation): A (Fold activation>200%)
EC1.5 μM: A (EC1.5<1.0 μM)

Cn1c(-c2cccc(C(F)(F)F)c2)nc2c(NC(=O)C3CCC(=O)N3)cccc2c1=O (stereo not drawn) [Compound 339, N-(3-methyl-4-oxo-2-(3-(trifluoromethyl)phenyl)-3,4-dihydroquinazolin-8-yl)-5-oxopyrrolidine-2-carboxamide]
% Fold Act. (percent maximum fold activation): B (Fold Activation<200%)
EC1.5 μM: C (EC1.5>25 μM)

O=C(Nc1cccc2c(=O)[nH]c(-c3cccc(C(F)F)c3)nc12)c1cnccn1 [Compound 311]
% Fold Act. (percent maximum fold activation): B (Fold Activation<200%)
EC1.5 μM: C (EC1.5>25 μM)

O=C(Nc1cccc2c(=O)cc(-c3cccc(C(F)(F)F)c3)[nH]c12)c1cccc(N2CCOCC2)n1 [Compound 425]
% Fold Act. (percent maximum fold activation): A (Fold activation>200%)
EC1.5 μM: A (EC1.5<1.0 μM)

Cn1c(-c2cccc(C#N)c2)nc2c(C(=O)Nc3ccccn3)cccc2c1=O [Compound 253]
% Fold Act. (percent maximum fold activation): B (Fold Activation<200%)
EC1.5 μM: C (EC1.5>25 μM)

Cn1c(-c2cccc(C(F)(F)F)c2)nc2c(NC(=O)c3cccc(N4CCCC4)c3)cccc2c1=O [Compound 337]
% Fold Act. (percent maximum fold activation): B (Fold Activation<200%)
EC1.5 μM: C (EC1.5>25 μM)

O=C(Nc1cccc2c(=O)cc(-c3cccc(C(F)(F)F)c3)[nH]c12)c1ccccn1 [Compound 408]
% Fold Act. (percent maximum fold activation): A (Fold activation>200%)
EC1.5 μM: A (EC1.5<1.0 μM)

Cn1c(-c2cccc(OC(F)F)c2)nc2c(C(=O)Nc3ccccn3)cccc2c1=O [Compound 326]
% Fold Act. (percent maximum fold activation): A (Fold activation>200%)
EC1.5 μM: A (EC1.5<1.0 μM)

Cn1nccc1-c1nc2c(NC(=O)c3cnccn3)cccc2c(=O)n1C [Compound 292]
% Fold Act. (percent maximum fold activation): B (Fold Activation<200%)
EC1.5 μM: C (EC1.5>25 μM)

Cn1c(-c2ccccn2)nc2c(NC(=O)c3cnccn3)cccc2c1=O [Compound 277]
% Fold Act. (percent maximum fold activation): B (Fold Activation<200%)
EC1.5 μM: C (EC1.5>25 μM)

Cn1c(-c2ccccc2OC(F)F)nc2c(C(=O)Nc3ccccn3)cccc2c1=O [Compound 327]
% Fold Act. (percent maximum fold activation): A (Fold activation>200%)
EC1.5 μM: B (EC1.5 1-25 μM)

Cc1cc(NC(=O)c2cccc3c(=O)n(C)c(-c4cccc(C(F)(F)F)c4)nc23)sn1 [Compound 296]
% Fold Act. (percent maximum fold activation): B (Fold Activation<200%)
EC1.5 μM: B (EC1.5 1-25 μM)

Cn1ccc(C(=O)Nc2cccc3c(=O)n(C)c(-c4cccc(C(F)(F)F)c4)nc23)n1 [Compound 247]
% Fold Act. (percent maximum fold activation): B (Fold Activation<200%)
EC1.5 μM: B (EC1.5 1-25 μM)

Cn1c(-c2cccc(C(F)(F)F)c2)nc2c(C(=O)Nc3cccc(CN4CCOCC4)n3)cccc2c1=O [Compound 344]
% Fold Act. (percent maximum fold activation): A (Fold activation>200%)
EC1.5 μM: A (EC1.5<1.0 μM)

Cc1nc(NC(=O)c2cccc3c(=O)n(C)c(-c4cccc(C(F)(F)F)c4)nc23)sc1C [Compound 298]
% Fold Act. (percent maximum fold activation): A (Fold activation>200%)
EC1.5 μM: A (EC1.5<1.0 μM)

Cn1cncc1-c1nc2c(C(=O)Nc3ccccn3)cccc2c(=O)n1C [Compound 262]
% Fold Act. (percent maximum fold activation): B (Fold Activation<200%)
EC1.5 μM: C (EC1.5>25 μM)

O=C(Nc1cccnc1)c1cccc2c(=O)cc(-c3ccccc3C(F)(F)F)[nH]c12 [Compound 437]
% Fold Act. (percent maximum fold activation): A (Fold activation>200%)
EC1.5 μM: A (EC1.5<1.0 μM)

CN1C(=O)CCC1C(=O)Nc1cccc2c(=O)n(C)c(-c3cccc(C(F)(F)F)c3)nc12 (stereo not drawn) [Compound 340]
% Fold Act. (percent maximum fold activation): B (Fold Activation<200%)
EC1.5 μM: C (EC1.5>25 μM)

Cn1ccnc1C(=O)Nc1cccc2c(=O)cc(-c3cccc(C(F)(F)F)c3)[nH]c12 [Compound 420]
% Fold Act. (percent maximum fold activation): A (Fold activation>200%)
EC1.5 μM: A (EC1.5<1.0 μM)

CCn1c(-c2cccc(C(F)(F)F)c2)nc2c(NC(=O)c3cnccn3)cccc2c1=O [Compound 232]
% Fold Act. (percent maximum fold activation): A (Fold activation>200%)
EC1.5 μM: A (EC1.5<1.0 μM)

Cn1ccnc1-c1nc2c(C(=O)Nc3ccccn3)cccc2c(=O)n1C [Compound 227]
% Fold Act. (percent maximum fold activation): B (Fold Activation<200%)
EC1.5 μM: C (EC1.5>25 μM)

O=C(Nc1ccccn1)c1cccc2c(=O)cc(-c3cccc(C(F)(F)F)c3)[nH]c12 [Compound 401, 4-oxo-N-(pyridin-2-yl)-2-(3-(trifluoromethyl)phenyl)-1,4-dihydroquinoline-8-carboxamide]
% Fold Act. (percent maximum fold activation): A (Fold activation>200%)
EC1.5 μM: A (EC1.5<1.0 μM)

Cn1c(-c2cccc(C(F)(F)F)c2)nc2c(NC(=O)c3cccc(N4CCOCC4)n3)cccc2c1=O [Compound 341]
% Fold Act. (percent maximum fold activation): A (Fold activation>200%)
EC1.5 μM: A (EC1.5<1.0 μM)

O=C(Nc1cccc2c(=O)cc(-c3cccc(C(F)(F)F)c3)[nH]c12)c1cncs1 [Compound 416]
% Fold Act. (percent maximum fold activation): A (Fold activation>200%)
EC1.5 μM: A (EC1.5<1.0 μM)

O=C(Nc1nccs1)c1cccc2c(=O)cc(-c3cccc(Cl)c3)[nH]c12 [Compound 433]
% Fold Act. (percent maximum fold activation): A (Fold activation>200%)
EC1.5 μM: A (EC1.5<1.0 μM)

Cn1c(-c2ccc(C(F)(F)F)cc2)nc2c(NC(=O)c3cnccn3)cccc2c1=O [Compound 251]
% Fold Act. (percent maximum fold activation): B (Fold Activation<200%)
EC1.5 μM: B (EC1.5 1-25 μM)

Cn1c(-c2cccc(OC(F)(F)F)c2)nc2c(NC(=O)c3cscn3)cccc2c1=O [Compound 203]
% Fold Act. (percent maximum fold activation): B (Fold Activation<200%)
EC1.5 μM: C (EC1.5>25 μM)
